Measured values: publication PMC7115544 (European Journal of Medicinal Chemistry, 2010)
Where two headings read alike, the source gives them in different places.

Legend:
in vitro = conditions: dog
[1] = test system: Herpes simplex virus-1 (KOS); assay: microbe, parasite or virus in culture; type: cell-based
[2] = test system: Herpes simplex virus-2 (G); assay: microbe, parasite or virus in culture; type: cell-based
Vaccinia virus = assay: microbe, parasite or virus in culture; type: cell-based; conditions: Orthopoxvirus vaccinia, HEL, read-out: EC50 Vaccinia virus
Reovirus-1 = assay: organism not typed; type: cell-based; conditions: Vero, read-out: EC50 Reovirus-1
MDCK cells [3] = assay: Cytotoxicity in MDCK cell cultures; type: cell-based, canine
Influenza B = assay: microbe, parasite or virus in culture; type: cell-based
MDCK cells [4] = test system: MDCK cells
Para influenza-3 virus = assay: organism not typed; type: cell-based; conditions: Vero, read-out: EC50 Para influenza-3 virus
Feline Herpes Virus = assay: Anti-Feline Herpes Virus activity in CRFK cell cultures; type: cell-based; conditions: for EC50: CRFK, read-out: EC50 Feline Herpes Virus
HEL cell cultures = conditions: human
Vero cell cultures = conditions: African green monkey
HeLa cell cultures = conditions: human
[5] = test system: Vesicular stomatitis virus; assay: microbe, parasite or virus in culture; type: cell-based; conditions: HEL, read-out: EC50 Vesicular stomatitis virus
[6] = test system: Herpes simplex virus-1 TK- KOS ACVr; type: cell-based
[7] = test system: Feline Corona Virus (FIPV); assay: Anti-Feline Corona Virus activity in CRFK cell cultures; type: cell-based; conditions: MTS assay
[8] = microscopically detectable alteration of normal cell morphology

With `CC(N)C12CC3CC(CC(C3)C1)C2` (stereo not shown) [Rimantadin] the CC50 (in vitro) was 472 µM.

With `NC(=O)c1ncn([C@@H]2O[C@H](CO)[C@@H](O)[C@H]2O)n1` [Ribavirin, reference compound] the EC50 ([1]; Human alphaherpesvirus 1, HEL, read-out: EC50 Herpes simplex virus-1 (KOS)) was > 250 µM, the EC50 ([2]; Human alphaherpesvirus 2, HEL, read-out: EC50 Herpes simplex virus-2 (G)) was > 250 µM and the EC50 (Vaccinia virus) was > 250 µM. The EC50 (Reovirus-1) was > 250 µM, the “Cytotoxicity Minimum cytotoxic concentration” value (MDCK cells [3]; reference compounds) was ≥100 µM and the EC50 (Influenza B; Influenza B virus, MDCK, read-out: Antiviral EC50 Influenza B Visual CPE score) was 9 µM.

For Oseltamivir carboxylate, the “Cytotoxicity Minimum cytotoxic concentration” value (MDCK cells [3]; reference compounds) was >100 µM, the EC50 (Influenza B; read-out: Antiviral EC50 Influenza B MTS, […], MTS assay, reference compounds) was 1.5 µM and the CC50 (MDCK cells [4]) was > 100 µM.

In the case of `COc1ccc(/C=N/n2c(-c3ccccc3)nc3ccccc3c2=O)cc1O` [Compound 2k, 3-[(3-Hydroxy-4-methoxy-benzylidine)-amino]-2-phenyl-3H-quinazolin-4one], the EC50 (Para influenza-3 virus) is reported as > 20 µg/mL, the EC50 (Reovirus-1) is reported as > 20 µg/mL and the EC50 (Feline Herpes Virus) is reported as > 20 µg/mL. For the same molecule, the Minimum cytotoxic concentration (HEL cell cultures) was 100 µg/mL and the Minimum cytotoxic concentration (Vero cell cultures) was 100 µg/mL.

With `COc1ccc(/C=N/n2c(-c3ccccc3)nc3ccccc3c2=O)cc1` [Compound 2c, 3-[(4-Methoxy-benzylidine)-amino]-2-phenyl-3H-quinazolin-4one] the EC50 (Para influenza-3 virus) was > 20 µg/mL, the EC50 (Reovirus-1) was > 20 µg/mL and the EC50 (Feline Herpes Virus) was > 4 µg/mL. The Minimum cytotoxic concentration (Vero cell cultures) was 100 µg/mL.

For `O=c1c2ccccc2nc(-c2ccccc2)n1/N=C/c1ccccc1` [Compound 2f, 3-(Benzylidine-amino)-2-phenyl-3H-quinazolin-4one], the EC50 (Para influenza-3 virus) was > 4 µg/mL, the EC50 (Reovirus-1) was > 4 µg/mL and the EC50 (Feline Herpes Virus) was > 0.8 µg/mL.

With `C/C(=N\n1c(-c2ccccc2)nc2ccccc2c1=O)c1ccccc1` [Compound 2h, 2-Phenyl-3(1-phenyl-ethylideneamino)-3H-quinazolin-4one] the EC50 (Para influenza-3 virus) was > 20 µg/mL, the EC50 (Reovirus-1) was > 20 µg/mL and the EC50 (Feline Herpes Virus) was > 0.8 µg/mL. The “Cytotoxicity Minimum cytotoxic concentration” value (MDCK cells [3]; [8]) was 100 µg/mL, the Minimum cytotoxic concentration (HEL cell cultures) was >100 µg/mL and the Minimum cytotoxic concentration (Vero cell cultures) was 100 µg/mL. For the same molecule, the Minimum cytotoxic concentration (HeLa cell cultures) was >100 µg/mL.

For `O=c1c2ccccc2nc(-c2ccccc2)n1/N=C/c1ccc(Cl)cc1` [Compound 2j, 3-[(4-Chloro-benzylidine)-amino]-2-phenyl-3H-quinazolin-4one], the EC50 (Para influenza-3 virus) was > 4 µg/mL, the EC50 (Reovirus-1) was > 4 µg/mL and the EC50 (Feline Herpes Virus) was > 20 µg/mL. It also gave a Minimum cytotoxic concentration (HEL cell cultures) of 100 µg/mL.

With `Nc1ncnc2c1ncn2C[C@H](O)CO` [(S)-DHPA, reference compound] the EC50 (Para influenza-3 virus) was > 250 µM and the EC50 (Reovirus-1) was > 250 µM.

In the case of `Nc1nc(O)c2ncn(COC(CO)CO)c2n1` [Ganciclovir, reference compound], the EC50 (Vaccinia virus) is reported as > 100 µM, the EC50 [5] is reported as > 100 µM and the EC50 (Feline Herpes Virus) is reported as 0.8 µM. For the same molecule, the Minimum cytotoxic concentration (HEL cell cultures) was >100 µM.

With `NC12CC3CC(CC(C3)C1)C2` [Amantadin, reference compound] the “Cytotoxicity Minimum cytotoxic concentration” value (MDCK cells [3]; reference compounds) was >1000 µM and the CC50 (in vitro) was > 1000 µM.

With `O=c1c2ccccc2nc(-c2ccccc2)n1/N=C/c1ccc(O)cc1` [Compound 2g, 3-[(4-Hydroxy-benzylidine)-amino]-2-phenyl-3H-quinazolin-4one] the EC50 (Para influenza-3 virus) was > 20 µg/mL, the EC50 (Reovirus-1) was > 20 µg/mL and the EC50 (Feline Herpes Virus) was > 20 µg/mL. The Minimum cytotoxic concentration (HEL cell cultures) was 100 µg/mL, the Minimum cytotoxic concentration (Vero cell cultures) was 100 µg/mL and the Minimum cytotoxic concentration (HeLa cell cultures) was 100 µg/mL.

For `O=c1c2ccccc2nc(-c2ccccc2)n1/N=C/c1cccc([N+](=O)[O-])c1` [Compound 2b, 3-[(3-Nitro-benzylidine)-amino]-2-phenyl-3H-quinazolin-4one], the EC50 (Para influenza-3 virus) was > 4 µg/mL, the EC50 (Reovirus-1) was > 4 µg/mL and the EC50 (Feline Herpes Virus) was > 4 µg/mL. The Minimum cytotoxic concentration (HEL cell cultures) was ≥20 µg/mL.

In the case of `O=c1c2ccccc2nc(-c2ccccc2)n1/N=C/c1ccccc1O` [Compound 2a, 3-[(2-Hydroxy-benzylidine)-amino]-2-phenyl-3H-quinazolin-4one], the “selectivity index, herpes simplex virus-1 (KOS)” value [1] is reported as 100, the “selectivity index, herpes simplex virus-2 (G)” value [2] is reported as 100 and the “selectivity index, herpes simplex virus-1 TK- KOS ACVr” value [6] is reported as 100. The EC50 (Para influenza-3 virus) was > 20 µg/mL, the EC50 (Feline Herpes Virus) was > 4 µg/mL and the “Cytotoxicity Minimum cytotoxic concentration” value (MDCK cells [3]; [8]) was ≥0.8 µg/mL. For the same molecule, the Minimum cytotoxic concentration (HEL cell cultures) was 100 µg/mL and the Minimum cytotoxic concentration (Vero cell cultures) was 100 µg/mL.

With `C/C(=N\n1c(-c2ccccc2)nc2ccccc2c1=O)c1ccc(O)cc1` [Compound 2i, 3-[1-(4-Hydroxy-phenyl)-ethylideneamino]-2-phenyl-3H-quinazolin-4one] the EC50 (Para influenza-3 virus) was > 100 µg/mL, the EC50 (Reovirus-1) was > 100 µg/mL and the EC50 (Feline Herpes Virus) was > 100 µg/mL. For the same molecule, the “Cytotoxicity Minimum cytotoxic concentration” value (MDCK cells [3]; [8]) was >100 µg/mL, the Minimum cytotoxic concentration (HEL cell cultures) was >100 µg/mL and the Minimum cytotoxic concentration (Vero cell cultures) was >100 µg/mL. The Minimum cytotoxic concentration (HeLa cell cultures) was >100 µg/mL.

With `COc1ccccc1/C=N/n1c(-c2ccccc2)nc2ccccc2c1=O` [Compound 2l, 3-[(2-Methoxy-benzylidine)-amino]-2-phenyl-3H-quinazolin-4one] the EC50 (Para influenza-3 virus) was > 20 µg/mL, the EC50 (Reovirus-1) was > 20 µg/mL and the EC50 (Feline Herpes Virus) was > 4 µg/mL. For the same molecule, the Minimum cytotoxic concentration (HEL cell cultures) was 100 µg/mL and the Minimum cytotoxic concentration (Vero cell cultures) was 100 µg/mL.

B1: UDA: reference substance in Table 4, not defined in the text (protein, UniProt P11218 24-372, looked up)
Lectin/endochitinase 1: QRCGSQGGGGTCPALWCCSIWGWCGDSEPYCGRTCENKCWSGERSDHRCGAAVGNPPCGQDRCCSVHGWCGGGNDYCSGSKCQYRCSSSVRGPRVALSGNSTANSIGNVVVTEPLFDQMFSHRKDCPSQGFYSYHSFLVAAESFPAFGTIGDVATRKREVAAFLAHISQATSGERSDVENPHAWGLCHINTTTVTENDFCTSSDWPCAAGKKYSPRGPIQLTHNFNYGLAGQAIGEDLIQNPDLVEKDPIISFKTALWFWMSQHDNKPSCHDIVLNANSAANRIPNKGVIGNIISRAFGHDDFAVRSSSIGFYKRYCDMLGVSYGHDLKYWFDNTPSSEFQRIQMRVAA
In the case of B1, the “EC50 Feline Corona Virus (FIPV)” value [7] is reported as 11.7 µg/mL and the “EC50 Feline Herpes Virus” value (Feline Herpes Virus; CRFK cell cultures, MTS assay) is reported as 53.1 µg/mL.
